Source: patent US7220746B2, “Pyrrolidinedione substituted piperidine-phthalazones as PDE4 inhibitors” (Altana Pharma AG, priority 2002, dated 2007)

Tested on: PDE4 activity (cytosol from human neutrophils)
Test: Inhibition of PDE4 activity
Assay type: biochemical
Parameters: unit not given here
Conditions: 0.5 μM cAMP, Motapizone 1 μM included to suppress PDE3
Description: Method for Measuring Inhibition of PDE4 Activity
PDE4 activity was determined as described by Thompson et al. (Adv Cycl Nucl Res 10: 69–92, 1979) with some modifications (Bauer and Schwabe, Naunyn-Schmiedeberg's Arch Pharmacol 311: 193–198, 1980). At a final assay volume of 200 μl (96well microliter plates) the assay mixture contained 20 mM Tris (pH 7.4), 5 mM MgCl2, 0.5 μM cAMP, [^3H]CAMP (about 30,000 cpm/assay), the test compound and an aliquot of cytosol from human neutrophils which mainly contains PDE4 activity as described by Schudt et al. (Naunyn-Schmiedeberg's Arch Pharmacol 344: 682–690, 1991); the PDE3-specific inhibitor Motapizone (1 μM) was included to suppress PDE3 activity originating from contaminating platelets. […]
After preincubation for 5 min at 37° C., the reaction was started by the addition of substrate (cAMP) and the assays were incubated for further 15 min at 37° C. […] The columns were eluted with 2 ml of 30 mM ammonium formiate (pH 6.0) and the eluate was counted for radioactivity. Results were corrected for blank values (measured in the presence of denatured protein) which were below 5% of total radioactivity. […] The IC50-values for the compounds according to the invention for the inhibition of the PDE4 activity were determined from the concentration-inhibition curves by nonlinear-regression.

In the case of COc1ccc(C2=NN(C3CCN(C(=O)CN4C(=O)CCC4=O)CC3)C(=O)[C@@H]3CC=CC[C@H]23)cc1OC [Example 1, 1-(2-{4-[(4aS,8aR)-4-(3,4-Dimethoxy-phenyl)-1-oxo-4a,5,8,8a-tetrahydro-yl]-piperidin-1-yl}-2-oxo-ethyl)-pyrrolidine-2,5-dione], the “Inhibition of PDE4 activity, −logIC50” value is reported as 10.66.
